# Legend:
# [1] = tested on: antibodies in sera from SARS patients (sera 1a, 1b, 2, 6, 37, 62, London, SARS-yellow, SARS-green); type: binding, human; parameters: Binding of serum 6 to linear peptides of protein X1 of SARS-CoV Urbani / Binding of serum 37 to linear peptides of protein X1 of SARS-CoV Urbani / Binding of serum 6 to looped/cyclic peptide (PEPSCAN-ELISA) / Binding of serum 37 to looped/cyclic peptide (PEPSCAN-ELISA) / Binding of serum 37 to looped/cyclic peptides of protein X1 of SARS-CoV Urbani / Binding of serum 6 to linear peptides of protein X2 / Binding of serum 37 to linear peptides of protein X2 / Binding of serum 37 to looped/cyclic peptides of protein X2 of SARS-CoV Urbani / Binding of serum 6 to linear peptides of protein M of SARS-CoV Urbani / Binding of serum 37 to linear peptides of protein M of SARS-CoV Urbani / Binding of serum 6 to looped/cyclic peptides of protein M of SARS-CoV Urbani / Binding of serum 37 to looped/cyclic peptides of protein M of SARS-CoV Urbani / Binding of serum 6 to linear peptides of protein X3 of SARS-CoV Urbani / Binding of serum 37 to linear peptides of protein X3 of SARS-CoV Urbani / Binding of serum 37 to looped/cyclic peptides of protein X3 of SARS-CoV Urbani / Binding of serum 6 to linear peptides of protein X4 of SARS-CoV Urbani / Binding of serum 37 to linear peptides of protein X4 of SARS-CoV Urbani / Binding of serum 37 to looped/cyclic peptides of protein X4 of SARS-CoV Urbani / Binding of serum 6 to linear peptides of protein X5 of SARS-CoV Urbani / Binding of serum 37 to linear peptides of protein X5 of SARS-CoV Urbani / Binding of serum 37 to looped/cyclic peptides of protein X5 of SARS-CoV Urbani / Binding of serum 6 to linear peptides of protein N of SARS-CoV Urbani / Binding of serum 37 to linear peptides of protein N of SARS-CoV Urbani / Binding of serum 6 to linear peptide (PEPSCAN-ELISA) / Binding of serum 1a to looped/cyclic peptides of protein N of SARS-CoV Urbani / Binding of serum 1b to looped/cyclic peptides of protein N of SARS-CoV Urbani / Binding of serum 2 to looped/cyclic peptides of protein N of SARS-CoV Urbani / Binding of serum 6 to looped/cyclic peptides of protein N of SARS-CoV Urbani / Binding of serum 37 to looped/cyclic peptides of protein N of SARS-CoV Urbani / Binding of serum 62 to looped/cyclic peptides of protein N of SARS-CoV Urbani / Binding of serum London to looped/cyclic peptides of protein N of SARS-CoV Urbani / Binding of serum SARS-green to looped/cyclic peptides of protein N of SARS-CoV Urbani: unit not given here
# [2] = tested on: control sera (pooled serum of ten healthy LUMC hospital workers; commercial negative donor pooled serum from the Dutch bloodbank); type: binding, human; parameters: Binding of Control serum LUMC to linear peptides / Binding of Control serum Blood-bank to linear peptides / Binding of Control serum LUMC to looped peptides / Binding of Control Serum Blood-Bank to Looped peptides / Binding of Control serum LUMC to linear peptides of the protein M of SARS-CoV Urbani / Binding of Control serum Blood-bank to linear peptides of the protein M of SARS-CoV Urbani / Binding of Control serum LUMC to looped peptides of the protein M of SARS-CoV Urbani / Binding of Control Serum Blood-Bank to Looped peptides of the protein M of SARS-CoV Urbani: unit not given here
# [3] = tested on: rabbit serum obtained by immunizing a rabbit with the SARS-CoV strain Frankfurt 1; type: binding; parameters: Binding of a rabbit serum to linear peptides / Binding of a rabbit serum to looped peptides / Rabbit serum linear peptides / Rabbit serum looped peptides / Binding of a rabbit serum to linear peptides of protein N of SARS-CoV Urbani (Rabbit serum linear peptides) / Binding of a rabbit serum to looped/cyclic peptides of protein N of SARS-CoV Urbani (Rabbit serum looped peptides): unit not given here
sequence,measurement,setting,value
KHKKVSTNLCTHSFR,Binding of serum 1a to looped/cyclic peptides of protein X2 of SARS-CoV Urbani,[1],0.5
same,Binding of serum 1b to looped/cyclic peptides of protein X2 of SARS-CoV Urbani,[1],0.0
same,Binding of serum 2 to looped/cyclic peptides of protein X2 of SARS-CoV Urbani,[1],0.7
same,Binding of serum 6 to looped/cyclic peptides of protein X2 of SARS-CoV Urbani,[1],0.4
same,Binding of serum 37 to looped/cyclic peptides of protein X2 of SARS-CoV Urbani,[1],0.2
same,Binding of serum 62 to looped/cyclic peptides of protein X2 of SARS-CoV Urbani,[1],0.4
same,Binding of serum London to looped/cyclic peptides of protein X2 of SARS-CoV Urbani,[1],0.1
same,Binding of serum SARS-green to looped/cyclic peptides of protein X2 of SARS-CoV Urbani,[1],0.3
same,Binding of serum SARS-yellow to looped/cyclic peptides of protein X2 of SARS-CoV Urbani,[1],0.1
same,"Recognition of the peptide by sera of SARS-CoV infected individuals, and form (linear, looped/cyclic) in which it is recognized",[1],recognized in linear form
same,Binding of Control Serum Blood-Bank to Looped peptides,[2],0.5
same,Binding of Control serum Blood-bank to linear peptides,[2],0.9
same,Binding of Control serum LUMC to linear peptides,[2],0.6
same,Binding of Control serum LUMC to looped peptides,[2],0.7
same,Binding of a rabbit serum to linear peptides,[3],0.4
same,Binding of a rabbit serum to looped peptides,[3],0.0
KKVSTNLCTHSFRKK,Binding of serum 1a to looped/cyclic peptides of protein X2 of SARS-CoV Urbani,[1],0.5
same,Binding of serum 1b to looped/cyclic peptides of protein X2 of SARS-CoV Urbani,[1],0.3
same,Binding of serum 2 to looped/cyclic peptides of protein X2 of SARS-CoV Urbani,[1],0.7
same,Binding of serum 6 to looped/cyclic peptides of protein X2 of SARS-CoV Urbani,[1],0.5
same,Binding of serum 37 to looped/cyclic peptides of protein X2 of SARS-CoV Urbani,[1],0.5
same,Binding of serum 62 to looped/cyclic peptides of protein X2 of SARS-CoV Urbani,[1],0.6
same,Binding of serum London to looped/cyclic peptides of protein X2 of SARS-CoV Urbani,[1],0.2
same,Binding of serum SARS-green to looped/cyclic peptides of protein X2 of SARS-CoV Urbani,[1],0.3
same,Binding of serum SARS-yellow to looped/cyclic peptides of protein X2 of SARS-CoV Urbani,[1],0.5
same,"Recognition of the peptide by sera of SARS-CoV infected individuals, and form (linear, looped/cyclic) in which it is recognized",[1],recognized in linear form
same,Binding of Control Serum Blood-Bank to Looped peptides,[2],0.5
same,Binding of Control serum Blood-bank to linear peptides,[2],0.7
same,Binding of Control serum LUMC to linear peptides,[2],0.4
same,Binding of Control serum LUMC to looped peptides,[2],0.8
same,Binding of a rabbit serum to linear peptides,[3],0.3
same,Binding of a rabbit serum to looped peptides,[3],0.1
KLVFLWLLWPVTLAC,Binding of serum 1a to linear peptides of protein M of SARS-CoV Urbani,[1],0.7
same,Binding of serum 1a to looped/cyclic peptides of protein M of SARS-CoV Urbani,[1],0.6
same,Binding of serum 1b to linear peptides of protein M of SARS-CoV Urbani,[1],0.6
same,Binding of serum 1b to looped/cyclic peptides of protein M of SARS-CoV Urbani,[1],0.2
same,Binding of serum 2 to linear peptides of protein M of SARS-CoV Urbani,[1],0.5
same,Binding of serum 2 to looped/cyclic peptides of protein M of SARS-CoV Urbani,[1],0.6
same,Binding of serum 6 to linear peptides of protein M of SARS-CoV Urbani,[1],0.4
same,Binding of serum 6 to looped/cyclic peptides of protein M of SARS-CoV Urbani,[1],0.7
same,Binding of serum 37 to linear peptides of protein M of SARS-CoV Urbani,[1],0.5
same,Binding of serum 37 to looped/cyclic peptides of protein M of SARS-CoV Urbani,[1],0.6
same,Binding of serum 62 to linear peptides of protein M of SARS-CoV Urbani,[1],0.5
same,Binding of serum 62 to looped/cyclic peptides of protein M of SARS-CoV Urbani,[1],0.6
same,Binding of serum London to linear peptides of protein M of SARS-CoV Urbani,[1],0.4
same,Binding of serum London to looped/cyclic peptides of protein M of SARS-CoV Urbani,[1],0.2
same,Binding of serum SARS-green to linear peptides of protein M of SARS-CoV Urbani,[1],0.4
same,Binding of serum SARS-green to looped/cyclic peptides of protein M of SARS-CoV Urbani,[1],0.3
same,Binding of serum SARS-yellow to linear peptides of protein M of SARS-CoV Urbani,[1],0.2
same,Binding of serum SARS-yellow to looped/cyclic peptides of protein M of SARS-CoV Urbani,[1],0.5
same,Binding of Control Serum Blood-Bank to Looped peptides of the protein M of SARS-CoV Urbani,[2],0.7
same,Binding of Control serum Blood-bank to linear peptides of the protein M of SARS-CoV Urbani,[2],0.7
same,Binding of Control serum LUMC to linear peptides of the protein M of SARS-CoV Urbani,[2],0.5
same,Binding of Control serum LUMC to looped peptides of the protein M of SARS-CoV Urbani,[2],0.6
same,Rabbit serum linear peptides,[3],0.1
same,Rabbit serum looped peptides,[3],0.0
